The assay concerns the target T1, EpCAM protein (Homo sapiens, UniProt P16422).
T1 construct: purchased Sino Biological Inc
T1 sequence (P16422 24-314): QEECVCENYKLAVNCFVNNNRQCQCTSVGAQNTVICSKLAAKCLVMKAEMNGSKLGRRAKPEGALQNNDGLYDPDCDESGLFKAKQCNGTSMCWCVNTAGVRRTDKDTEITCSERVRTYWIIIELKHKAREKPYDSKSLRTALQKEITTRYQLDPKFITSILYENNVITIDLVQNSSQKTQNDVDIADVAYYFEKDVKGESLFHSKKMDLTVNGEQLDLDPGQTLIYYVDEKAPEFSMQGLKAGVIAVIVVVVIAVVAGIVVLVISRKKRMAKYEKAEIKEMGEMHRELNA
Put plainly: surface plasmon resonance imaging (SPRi) test of binding ability of chip-spotted peptoid to EpCAM protein. The following applies: EpCAM 5.68-91.2 nM in PBS, binding 300 s, dissociation 300 s, fitted with BIAevalution 4.1, read-out: equilibrium dissociation constant KD.

Each structure is given as a SMILES string.

Take `NCCCCNC(=O)CN(CCc1ccc(-c2ccccc2)cc1)C(=O)CN(CCC(=O)O)C(=O)CNCCc1ccccc1` [Formula II]: the Kd was 0.0187 µM.
